We go through 28 compounds from patent US5574070A, “Substituted guanidines having high binding to the sigma receptor and the use thereof” (priority 1993, dated 1996).

The subject of data set [1] is anxiety behavior of mice. Description: black:white test box (light/dark exploration) of mice.
Data set [2] addresses sigma receptor. Description: [3H]DTG displacement radioligand binding assay, guinea pig brain membranes.
Where [3] appears, read: list of especially preferred compounds, read-out: IC50 (high binding to the sigma receptor).
The mark [4] stands for this setting: Example 25, guinea pig brain membrane homogenates, read-out: IC50 binding values.
Setting [5] is: read-out: IC50 vs [3H]DTG, Table I, guinea pig brain membranes.

Structures can show the parent of a compound that is named as a salt. Where two headings read alike, the source gives them in different places.

As usually defined, the IC50 is the concentration that inhibits the measured activity by half. Turning to `N=C(Nc1ccccc1I)N[C@@H]1C[C@@H]2CC[C@H]1C2` (relative stereo) [N-((±)-endo-2-norbornyl)-N'-(2-iodophenyl)guanidine], in data set [1] (oral), the “latency to entering the dark compartment” value was “increase in the latency to entering the dark compartment”; the “numbers of line crossings and/or rears in the light compartment (vs dark)” value (“numbers … (vs dark)” for short) is recorded as “increase in the number of rears in the light compartment”; the “proportion of time in light area / percentage of time in black compartment” value is reported as “decrease in the percentage time spent in the black compartment”; the “sedation: total numbers of rears and line crossings” value (“sedation: total numbers” for short) is on record as “did not decrease significantly, showing that the drug was not sedative”. Moreover, in data set [1] (s.c.), the “latency to entering the dark compartment” value is “dose-dependent increase in the latency to entering the dark compartment”; the “numbers … (vs dark)” value is reported as “significant dose-dependent increase in the number of rears in the light compartment”; the “sedation: total numbers” value was “did not decrease significantly, showing that the drug was not sedative”. Further, the half-maximal inhibitory concentration (IC50) in data set [2] (setting [3]) came to 5 nM.
Consider `Cc1ccccc1NC(=N)N[C@H]1C[C@@H]2CC[C@H]1C2` (relative stereo) [N-(exo-2-norbornyl)-N'-(2-methylphenyl)guanidine], for which, in data set [1] (oral), the “latency to entering the dark compartment” value is “increase in the latency to entering the dark compartment”; the “numbers … (vs dark)” value is on record as “increase in the number of rears in the light compartment”; the “proportion of time in light area / percentage of time in black compartment” value is on record as “decrease in the percentage time spent in the black compartment”; the “sedation: total numbers” value is listed as “did not decrease significantly, showing that the drug was not sedative”. Moreover, in data set [1] (s.c.), the “latency to entering the dark compartment” value was “increase in the latency to entering the dark compartment when administered at 0.1 mg/kg”; the “numbers … (vs dark)” value is given as “increase in the number of rears in the light compartment”; the “sedation: total numbers” value was “did not decrease significantly, showing that the drug was not sedative”. Moreover, in data set [2] (setting [3]), the 50% inhibitory concentration (IC50) is 7 nM.
On to `CC12CC3CC(C)(C1)CC(/N=C(\N)Nc1ccccc1/C=C/c1ccccc1)(C3)C2` [Example F-114-B, N-(3,5-dimethyladamantan-1-yl)-N'-[(E)-2-phenylethenyl]phenylguanidine], for which the “sedation: total numbers” value in data set [1] (s.c.) is “did not decrease significantly showing that the drug was not sedative at this level”.
As to `N=C(NC12CC3CC(CC(C3)C1)C2)NC12CC3CC(CC(C3)C1)C2` [DAG, N,N'-di-(adamantan-1-yl)guanidine], in data set [1] (oral), the “latency to entering the dark compartment” value is on record as “increase in the latency to entering the dark compartment”; the “numbers … (vs dark)” value was “increase in the numbers of line crossings and rears in the light compartment”; the “sedation: total numbers” value was “did not decrease significantly”. For the same compound, the anxiolytic activity result in data set [1] (oral, 1 mg/kg) is “have anxiolytic activity when orally administered”. Besides, in data set [1] (s.c.), the “numbers … (vs dark)” value was “increased at the expense of those in the dark compartment”; the “proportion of time spent in the lighted area” value is given as “tended to increase the proportion of time the mice spent in the larger, lighted area”; the “sedation: total numbers” value is recorded as “did not decrease significantly showing that the drug was not sedative at this level”. For the same compound, in data set [2], the “in vitro [3H]DTG displacement activity” value is “found to possess the aforesaid in vitro [^3 H]DTG displacement activity”. In addition, the 50% inhibitory concentration (IC50) in data set [2] (setting [4]) was found to be 11.8 ± 3.4 nM. Moreover, the half-inhibitory concentration (IC50) in data set [2] (setting [3]) was 16.5 nM. Further, the concentration for half-maximal inhibition (IC50) in data set [2] (setting [5]) came out at 17 ± 3 nM.
As for `Cc1ccccc1NC(=N)NC1CCCCC1` [N-Cyclohexyl-N'-(2-methylphenyl)guanidine], in data set [1] (oral), the “latency to entering the dark compartment” value was “slight increase in the latency to entering the dark compartment”; the “numbers … (vs dark)” value is “increase in the total numbers of rears in the light compartment”; the “proportion of time in light area / percentage of time in black compartment” value was “significant decrease in the percentage of time in the black compartment”; the “sedation: total numbers” value was “did not change significantly, showing that the compound was not sedative”. Also, in data set [1] (s.c.), the “latency to entering the dark compartment” value is listed as “increase in the latency to entering the dark compartment”; the “numbers … (vs dark)” value is listed as “increased in a dose-dependent manner at the expense of those in the dark compartment”; the “proportion of time spent in the lighted area” value is “increases significantly the proportion of time the mice spent in the larger, lighted area”; the “sedation: total numbers” value is reported as “did not decrease significantly, showing that the drug was not sedative”. The “in vitro [3H]DTG displacement activity” value in data set [2] is “found to possess the aforesaid in vitro [^3 H]DTG displacement activity”. Also, in data set [2] (setting [4]), the IC50 was 13 ± 1 nM. In data set [2] (setting [3]), the 50% inhibitory concentration (IC50) amounted to 13 nM. Also, the concentration for half-maximal inhibition (IC50) in data set [2] (setting [5]) amounted to 17 ± 5 nM.
As to `N=C(Nc1ccccc1[N+](=O)[O-])NC12CC3CC(CC(C3)C1)C2` [N-(1-adamantyl)-N'-(o-nitrophenyl)guanidine], the “in vitro [3H]DTG displacement activity” value in data set [2] is “found to possess the aforesaid in vitro [^3 H]DTG displacement activity”. The IC50 in data set [2] (setting [4]) and in data set [2] (setting [3]) was 30 nM throughout.
Turning to `Cc1ccccc1NC(=N)Nc1ccccc1I` [N-(2-iodophenyl)-N'-(2-methylphenyl)-guanidine], the “in vitro [3H]DTG displacement activity” value in data set [2] was “found to possess the aforesaid in vitro [^3 H]DTG displacement activity”. The IC50 in data set [2] (setting [4]) is 21 nM; in data set [2] (setting [3]), 21 nM; in data set [2] (setting [5]), 21 ± 1 nM.
On to `Cc1ccccc1NC(=N)NC1C2CC3CC(C2)CC1C3` (stereo not drawn) [N-(adamant-2-yl)-N'-(2-methylphenyl)guanidine], for which the IC50 in data set [2] (setting [3]) came to 7 nM.
As to `N=C(Nc1ccccc1I)N[C@H]1C[C@@H]2CC[C@H]1C2` (relative stereo) [N-(exo-2-norbornyl)-N'-(2-iodophenyl)guanidine], the half-maximal inhibitory concentration (IC50) in data set [2] (setting [3]) was 4 nM.
On to `Cc1ccccc1NC(=N)Nc1ccc(N=[N+]=[N-])cc1C` [N-(2-Methyl-4-azido-phenyl)-N'-(2-methylphenyl)guanidine], for which the “in vitro [3H]DTG displacement activity” value in data set [2] was “found to possess the aforesaid in vitro [^3 H]DTG displacement activity”. Further, the IC50 in data set [2] (setting [3]) is 20 nM; in data set [2] (setting [5]) it was 20 ± 1 nM.
Turning to `CC(C)c1ccccc1NC(=N)NC12CC3CC(CC(C3)C1)C2` [N-(adamant-1-yl)-N'-(o-isopropylphenyl)guanidine], the “in vitro [3H]DTG displacement activity” value in data set [2] was “found to possess the aforesaid in vitro [^3 H]DTG displacement activity”. Further, the IC50 in data set [2] (setting [4]) and in data set [2] (setting [3]) was 24 nM each time.
For the compound “1,1-dimethyl-4-guanidine [reference compound]”, the “displacement of [3H]DTG” value in data set [2] is listed as “no significant displacement”.
Take `N=C(Nc1ccccc1I)Nc1ccccc1C=Cc1ccccc1` [N-(2-styrylphenyl)-N'-(2-iodophenyl)guanidine]: in data set [1] (i.p.), the “latency to entering the dark compartment” value is on record as “decreased the latency to entering the dark compartment”, the “numbers of line crossings and/or rears in the light compartment” value was “did not affect the numbers of line crossings or rears in the light compartment” and the “proportion of time in light area / percentage of time in black compartment” value is “No significant change in the percentage time in the black compartment”.
In the case of `Clc1cccc(Cl)c1N=C1NCCN1` [Clonidine, reference compound], the 50% inhibitory concentration (IC50) in data set [2] (read-out: IC50 vs. [3H]DTG) was above 10000 nM.
Consider `CCc1cccc(N2CCN(c3cccc(CC)c3)C2=N)c1` [N,N'-Bis (3-ethylphenyl)-2-imino-imidazolidine], for which the concentration for half-maximal inhibition (IC50) in data set [2] (setting [3]) turned out to be 70 nM.
`CN/C(=N/CCSCc1nc[nH]c1C)NC#N` [cimetidine, reference compound]: the “displacement of [3H]DTG” value in data set [2] is reported as “no significant displacement”.
With beta-endorphin [reference compound], the “displacement of [3H]DTG” value in data set [2] (10 uM) is given as “no significant displacement”.
As for `Cc1ccccc1NC(=N)Nc1ccc(N)cc1C` [NH2 --DTG, N-(2-Methyl-4-aminophenyl)-N'-(2-methylphenyl)-guanidine hydrochloride], the IC50 in data set [2] (setting [4]) was found to be 280 ± 20 nM; in data set [2] (setting [5]) it was 280 ± 14 nM.
`C=CCN1CCC2(C)c3cc(O)ccc3CC1C2C` (single isomer, unassigned; (+)) [(+)SKF 10,047, N-allyl-normetazocine, reference compound]: the 50% inhibitory concentration (IC50) in data set [2] (read-out: IC50 vs. [3H]DTG) was determined as 625 ± 88 nM.
Regarding `N=C(N)NCC(=O)O` [guanidino acetic acid, reference compound], the “displacement of [3H]DTG” value in data set [2] (10 uM) is given as “no significant displacement”.
As to `O=C1CC2(CCCC2)CC(=O)N1CCCCN1CCN(c2nsc3ccccc23)CC1` [tiospirone, reference compound], the IC50 in data set [2] (setting [4]) is 233 ± 52 nM.
As to `CNC(=N)N` [methyl-guanidine, reference compound], in data set [2] (10 uM), the “displacement of [3H]DTG” value is on record as “no significant displacement”.
On to `CN(C)CCC=C1c2ccccc2CCc2ccccc21` [Amitriptyline, reference compound], for which, in data set [2] (read-out: IC50 vs. [3H]DTG, Table III, ± SEM, average from 2-4 separate experiments in triplicate), the IC50 is 300 ± 7 nM.
Take `CC1(C)[C@H]2CC[C@]1(C)[C@@H](NC(=N)Nc1ccccc1I)C2` (relative stereo) [N-(exo-2-isobornyl)-N'-(o-iodophenyl)guanidine]: the “in vitro [3H]DTG displacement activity” value in data set [2] was “found to possess the aforesaid in vitro [^3 H]DTG displacement activity”. Besides, the IC50 in data set [2] (setting [4]) and in data set [2] (setting [3]) was 18 nM in each case.
With `Cc1ccccc1NC(=N)Nc1c(C)cccc1C` [N-(2,6-dimethylphenyl)-N'-(2-methylphenyl)-guanidine], the “in vitro [3H]DTG displacement activity” value in data set [2] was “found to possess the aforesaid in vitro [^3 H]DTG displacement activity”. Further, the results for the IC50 in data set [2] (setting [4]), in data set [2] (setting [3]) and in data set [2] (setting [5]) were 70 nM, 70 nM and 70 ± 3 nM, respectively.
In the case of picrotoxin [reference compound], in data set [2] (10 uM), the “displacement of [3H]DTG” value is reported as “no significant displacement”.
Regarding `N=C(Nc1ccc(I)cc1)NC1C2CC3CC(C2)CC1C3` (stereo not drawn) [N-(adamant-2-yl)-N'-(p-iodophenyl)guanidine], the “in vitro [3H]DTG displacement activity” value in data set [2] was “found to possess the aforesaid in vitro [^3 H]DTG displacement activity”. The concentration for half-maximal inhibition (IC50) in data set [2] (setting [4]) worked out at 2.7 nM.
Regarding `CN1CCc2cc3c(cc2[C@H]1[C@@H]1OC(=O)c2c1ccc1c2OCO1)OCO3` [bicuculline, reference compound], in data set [2] (10 uM), the “displacement of [3H]DTG” value is “no significant displacement”.
